Measured values taken from patent publication US7829557B2, “2-heterosubstituted 3-aryl-4H-1-benzopyran-4-ones as novel therapeutics in breast cancer” (The Ohio State University Research Foundation, priority 2006, dated 2010).
Like-named read-outs stand apart in the source and are kept apart here.

How the values were obtained:
MCF-7 cells = assay: Dose response / IC50 for effects on proliferation in MCF-7 cells; format: cell-based, human
Procedure: Several members of the combinatorial library that was prepared in accordance with the methods of this invention have been tested for effects on proliferation in MCF-7 cells and MDA-MB-231 cells.
Dose response studies were performed with compounds from the combinatorial library. Compounds 234, 220, 244, 230, 258, YWK-II-14 and 4-OH-Tamoxifen were performed.
IC50 ranges for several members of the combinatorial library were within 95% confidence intervals.

[1] = tested on: human breast cancer cell lines; assay: Suppression of proliferation of human breast cancer cell lines; format: cell-based; settings: suppressing proliferation of human breast cancer cell lines; most potent of the series
Description: Thus, we designed and synthesized several isoflavones containing a basic side chain connected through either an oxygen or a sulfur linkage (synthetic scheme—FIG. 9).

[2] = 95% confidence interval, no unit in this head, cell line taken from Example 5 (MCF-7), read-out: IC50 Range
[3] = from GraphPad Prism fit, read-out: IC50 (From Program)
[4] = midpoint and half-width of the IC50 range, read-out: IC50 ± ΔIC50

SMILES	IC50 (MCF-7 cells; [2]) [µM]	IC50 (MCF-7 cells; [3]) [µM]	IC50 (MCF-7 cells; [4]) [µM]	IC50 [1] [µM]
COc1ccc(-c2c(Sc3ccc(OCCN4CCCCC4)cc3)oc3cc(OCc4ccccc4)ccc3c2=O)cc1 [Compound 230]	2.41 to 7.23	4.17	4.82 ± 2.41	
COc1ccc(-c2c(Oc3ccc(OCCN4CCCCC4)cc3)oc3cc(OCc4ccccc4)ccc3c2=O)cc1 [Compound 258]	2.3 to 5.88	3.67	4.09 ± 1.79	
COc1ccc(-c2c(Oc3ccc(OCCN4CCCCC4)cc3)oc3cc(O)ccc3c2=O)cc1 [YWK-II-14]	~6.31	~6.31	~6.31	
O=c1c(-c2ccc(O)cc2)c(Sc2ccc(O)cc2)oc2cc(O)ccc12 [Compound 244]	7.86 to 15.7	11.1	11.8 ± 3.94	
COc1ccc(-c2c(Sc3ccc(O)cc3)oc3cc(OCc4ccccc4)ccc3c2=O)cc1 [Compound 220]	2.87 to 7.68	4.7	5.28 ± 2.4	
CC/C(=C(\c1ccc(O)cc1)c1ccc(OCCN(C)C)cc1)c1ccccc1 [4-OH Tamoxifen, reference compound]	3.61 to 4.93	4.22	4.27 ± 0.66	
COc1ccc(-c2c(Sc3ccc(OCCN4CCCCC4)cc3)oc3cc(O)ccc3c2=O)cc1 [Compound 310a]				0.058
COc1ccc(-c2c(Sc3ccc(OCCN4CCCCC4)cc3)oc3cc(O)ccc3c2=O)cc1 [Compound 234]	0.36 to 0.92	0.58	0.64 ± 0.28	
